Test results published in article PMC11969438 (Inorganic Chemistry Frontiers, 2025).

Legend:
HCT116 cells = test: MTT-based cell viability assay, 72 h; parameters: species or system human; conditions: without AA
Method: Cell models were seeded (2–2.5 × 10^3 cells per well) in 96-well plates. After 24 h of recovery, the compounds were applied at the concentrations indicated in triplicate. Cell viability was determined after 72 h of continuous drug incubation using an MTT-based cell viability assay (EZ4U, Biomedica, Vienna, Austria) according to the manufacturer's recommendations. Absorbance was measured at 450 nm (vs. 620 nm as reference) using a multimode microplate reader (Tecan Spark, Zurich, Switzerland). Half-maximal inhibitory concentrations (IC50 values) were derived via interpolation from dose–response curves, modeled with the four-parameter logistic (4PL) nonlinear regression model in GraphPad Prism (La Jolla, CA, USA) from at least three independent experiments.

THP1-Dual cells [1] = test: Cytokine and chemokine secretion in cell culture supernatant, Luminex; assay type: cell-based, human; conditions: 24 h
Method: Quantification of secreted protein targets in either cell culture SN or in plasma of treated animals was performed using a ProcartaPlex (96-well) multiplex assay panel (Thermo Fisher Scientific) in the xMAP detection platform (Luminex). For the in vitro detection of secreted proteins, THP1-Dual cells were seeded at 1 × 10^5 cells per well in 96-well plates in RPMI-1640 medium, supplemented with 10% FCS, L-glutamine and Pen-Strep. After 24 h of recovery, the compounds were applied at the concentrations indicated in triplicate.
After 24 h of drug incubation, the cell culture SN of technical triplicate was collected, pooled, centrifuged (400g, 10 min, 4 °C), transferred into a fresh tube, and stored at −20 °C.
(§1) Next, the ProcartaPlex (96-well) multiplex assay panel was performed according to the manufacturer's recommendations. In brief, the capture bead mix was incubated with test samples (undiluted SN or mouse plasma) or standard mix overnight. The SN of three independent experiments or the plasma of four animals per treatment group was loaded onto the multiplex assay plate. Next, biotinylated detection antibody mix and Streptavidin-PE were added to the plate. Following the recommended washing steps, the samples were incubated in a reading buffer and were measured using a Luminex xMAP platform (Bio-Plex MAGPIX Multiplex Reader; Bio-Rad Laboratories) and analyzed using xPONENT software.

THP1-Dual cells [2] = test: Quantitative RT-PCR of target genes downstream of STING; assay type: cell-based, human; conditions: 24 h, prodrugs 100 μM, MSA-2 25 μM
Method: The THP1-Dual cell model was seeded at 1 × 10^6 cells per well in six-well plates. After 24 h of recovery, the compounds were applied at the concentrations indicated. After 24 h of drug exposure, total RNA was isolated using TRIzol reagent (Thermo Fisher Scientific, MA, USA), as described previously.[12] RNA was reverse transcribed into cDNA using RevertAid Reverse Transcriptase (Thermo Fisher Scientific). Real-time PCR was performed using the GoTaq® RT-qPCR system (Promega) with a CFX96 Touch Real-Time PCR Detection System (Bio-Rad Laboratories). Relative mRNA levels were quantified using the 2^−ddCT method.[54] RPL41 was used as a housekeeping gene. Human-specific primers were purchased from Eurofins Genomics (Ebersberg, Germany) with the following sequences: RPL41: fwd (5′-[…]-3′), rev (5′-[…]-3′); IFNB1: fwd (5′-CTTGGATTCCTACAAAGAAGCAGC-3′), rev (5′-[…]-3′); ISG15: fwd (5′-[…]-3′), rev (5′-[…]-3′); IFIT1: fwd (5′-[…]-3′), rev (5′-[…]-3′); CXCL10: fwd (5′-[…]-3′), rev (5′-[…]-3′); and CCL5: fwd (5′-[…]-3′), rev (5′-[…]-3′).

THP1-Dual cells [3] = test: Western blot analysis of STING downstream pathway, DNA damage and cell death markers; assay type: cell-based, human; conditions: 24 h
Method: The THP1-Dual cell model was seeded at 1 × 10^6 cells per well in six-well plates. After 24 h of recovery, the compounds were applied at the concentrations indicated. After 24 h of drug exposure, whole-cell protein isolation was performed as described previously.[14] Sodium dodecyl sulfate polyacrylamide gel electrophoresis was performed. Proteins were transferred onto polyvinylidene difluoride membranes (Thermo Scientific, Waltham, MA, USA). Antibodies targeting STING (##13 647; 1 : 1000), phospho-STING (#19 781; 1 : 500), TBK1 (#3504; 1 : 500), IRF-3 (#4302; 1 : 500), phospho-p65 (#3033; 1 : 500), ISG15 (#2743; 1 : 1000), caspase-3 (#9665; 1 : 1000), cleaved caspase-3 (#9661; 1 : 1000), PARP (#9532; 1 : 1000), and cleaved PARP (#9541; 1 : 1000) were purchased from Cell Signaling Technology (Danvers, MA, USA). The p65 antibody (#sc-372; 1 : 1000) was purchased from Santa Cruz and the phospho-H2A.X antibody (#05-636-I; 1 : 500) was obtained from Merck (Darmstadt, Germany). The anti-β-actin (#5441; 1 : 2000) antibody was obtained from Sigma-Aldrich. The anti-mouse IgG (#A0168; 1 : 10 000) horseradish peroxidase (HRP)-coupled secondary antibody was purchased from Sigma-Aldrich, and the anti-rabbit IgG (#7074; 1 : 5000) HRP-linked secondary antibody was obtained from Cell Signaling Technology.

albumin = biological target: T1, albumin (Bos taurus, UniProt P02769); test: Albumin binding in fetal calf serum, SEC-ICP-MS; assay type: in vitro ADME; conditions: 50 μM in FCS, 37 °C, up to 24 h
T1 construct: Serum proteins have a retention span of ∼2–4 min as part of the high-molecular weight fraction with albumin at ∼4 min; tissue Sigma-Aldrich; host or cells: fetal calf serum (whole serum, buffered with 150 mM phosphate buffer pH 7.4)
Method: FCS was purchased from Sigma-Aldrich and buffered with 150 mM PB pH 7.4 to guarantee a stable pH. The platinum(IV) complexes were dissolved in 150 mM PB (pH 7.4) at a concentration of 5 mM and diluted 1 : 100 in the buffered serum to obtain a final concentration of 50 μM. The samples were then incubated in an autosampler at 37 °C and analyzed for 24 h. Between each sample, a pure water blank was measured. For SEC-ICP-MS measurements an Agilent 1260 Infinity system coupled to an Agilent 7800 ICP-MS equipped with a dynamic reaction cell was used. Oxygen (purity 5.5, Messer Austria GmbH, Gumpoldskirchen, Austria) was used as a reaction gas.

[4] = Cytokine and chemokine levels in plasma of treated animals, Luminex; assay type: in vivo, CT-26-bearing BALB/c mice; conditions: 24 h after second dose
Method: as §1
Tumor size was determined daily via manual caliper measurement. […] Animals were euthanized via cervical dislocation.

T1 sequence (P02769 25-607): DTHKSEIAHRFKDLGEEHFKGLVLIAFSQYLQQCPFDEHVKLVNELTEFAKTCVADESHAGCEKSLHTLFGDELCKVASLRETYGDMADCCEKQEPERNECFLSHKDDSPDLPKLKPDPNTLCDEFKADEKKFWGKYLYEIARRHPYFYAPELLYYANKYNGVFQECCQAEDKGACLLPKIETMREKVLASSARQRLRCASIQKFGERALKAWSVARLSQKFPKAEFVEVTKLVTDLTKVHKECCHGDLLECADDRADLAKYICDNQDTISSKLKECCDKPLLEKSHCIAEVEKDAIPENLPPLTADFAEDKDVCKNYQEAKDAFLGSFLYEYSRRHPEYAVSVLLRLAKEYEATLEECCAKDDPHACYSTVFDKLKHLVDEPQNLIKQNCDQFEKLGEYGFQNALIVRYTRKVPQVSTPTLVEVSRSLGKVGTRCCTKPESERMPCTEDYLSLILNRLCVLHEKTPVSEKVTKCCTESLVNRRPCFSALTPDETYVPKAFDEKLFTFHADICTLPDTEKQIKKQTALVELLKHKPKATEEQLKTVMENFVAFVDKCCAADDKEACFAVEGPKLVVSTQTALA

SMILES: O=C1[O][Pt]2([NH][C@@H]3CCCC[C@H]3[NH]2)[O]C1=O [oxaliplatin, reference compound]
- IC50 (HCT116 cells): 800 nM
- TNF-α and IFN-γ secretion (THP1-Dual cells [1]; oxaliplatin 5 μM): activated predominantly by oxaliplatin

SMILES: COCCOCCOCCOCCC(=O)[O][Pt-2]12([O]C(=O)CCC(=O)c3cc4cc(OC)c(OC)cc4s3)([NH2+][C@@H]3CCCC[C@H]3[NH2+]1)[O]C(=O)C(=O)[O]2 [Ox-MSA-PEG-Es, (OC-6-44)-[(1R,2R)-1,2-cyclohexanediamino]-oxalato-[4-(5,6-dimethoxybenzo[b]thiophen-2-yl)-4-oxobutylcarboxylato]-[2,5,8,11-tetraoxatetradecanoato]platinum(IV)]
- mRNA induction of immune response genes (IFN-β, ISG15, IFIT1, CXCL10, CCL5) (THP1-Dual cells [2]): low propensity
- DNA damage (p-H2A.X upregulation, cleavage of caspase-3 and PARP) (THP1-Dual cells [3]): induced DNA damage

SMILES: COCCOCCOCCOCCNC(=O)[O][Pt-2]12([O]C(=O)CCC(=O)c3cc4cc(OC)c(OC)cc4s3)([NH2+][C@@H]3CCCC[C@H]3[NH2+]1)[O]C(=O)C(=O)[O]2 [Ox-MSA-PEG-Ca, (OC-6-34)-[(1R,2R)-1,2-cyclohexanediamino]-oxalato-[4-(5,6-dimethoxybenzo[b]thiophen-2-yl)-4-oxobutylcarboxylato]-[3,6,9,12-tetraoxatridecan-1-amino]platinum(IV)]
- mRNA induction of immune response genes (IFN-β, ISG15, IFIT1, CXCL10, CCL5) (THP1-Dual cells [2]): distinctly raised transcript levels to a comparable extent as free MSA-2
- ability to conjugate to albumin (albumin): lacked the ability to conjugate to albumin
- DNA damage (p-H2A.X upregulation, cleavage of caspase-3 and PARP) (THP1-Dual cells [3]): induced DNA damage
- induction of ISG15 (THP1-Dual cells [3]): triggered
- plasma IFN-β, IL-6 and M-CSF [4]: highest activations
- secretion of cytokines and chemokines (THP1-Dual cells [1]; prodrug 100 μM, MSA-2 25 μM): induced distinct secretion of cytokines and chemokines
